Test results published in patent US5646042A, “C-myb targeted ribozymes” (Ribozyme Pharmaceuticals, Inc., priority 1995, dated 1997).

System: rat smooth muscle cells
Assay: Serum-stimulated rat smooth muscle cell proliferation (BrdU incorporation)
Format: cell-based
Conditions: for % cell proliferation: no ribozyme; for augmentation of ribozyme inhibition of smooth muscle cell proliferation: 0.2 μM ribozyme 575 12/12 complexed with DMRIE/DOPE at 1:1 charge ratio
Procedure: The ribozymes that cleaved c-myb RNA described above were assayed for their effect on smooth muscle cell proliferation. Rat vascular smooth muscle cells were isolated and cultured as follows. Aortas from adult Sprague-Dawley rats were dissected, connective tissue was removed under a dissecting microscope, and 1 mm^2 pieces of the vessel were placed, intimal side up, in a Petri dish in Modified Eagle's Medium (MEM) with the following additives: 10% FBS, 2% tryptose phosphate broth, 1% penicillin/streptomycin and 2 mM L-Glutamine. The smooth muscle cells were allowed to migrate and grow to confluence over a 3-4 week period. These primary cells were frozen and subsequent passages were grown at 37° C. in 5% CO2 in Dulbecco's modified Eagle's medium (DMEM), 10% fetal bovine serum (FBS), and the following additives: 2 mM L-Glutamine, 1% penicillin/streptomycin, 1 mM sodium pyruvate, non-essential amino acids (0.1 mM of each amino acid), and 20 mM Hepes pH 7.4. Cells passed four to six times were used in proliferation assays. For the cell proliferation assays, 24-well tissue culture plates were prepared by coating the wells with 0.2% gelatin and washing once with phosphate-buffered saline (PBS). RASMC were inoculated at 1×10^4 cells per well in 1 ml of DMEM plus 10% FBS and additives and incubated for 24 hours. The cells were subconfluent when plated at this density. The cells were serum-starved by removing the medium, washing once with PBS, and incubating 48-72 hours in DMEM containing 0.5% FBS plus additives.
Serum-starved smooth muscle cells were washed twice with PBS, and the RNA/lipid complex was added. The plates were incubated for 4 hours at 37° C. The medium was then removed and DMEM containing 10% FBS, additives and 10 μM bromodeoxyuridine (BrdU) was added. In some wells, FBS was omitted to determine the baseline of unstimulated proliferation. The plates were incubated at 37° C. for 20-24 hours, fixed with 0.3% H2 O2 in 100% methanol, and stained for BrdU incorporation by standard methods. In this procedure, cells that have proliferated and incorporated BrdU stain brown; non-proliferating cells are counter-staineda light purple. Both BrdU positive and BrdU negative cells were counted under the microscope. 300-600 total cells per well were counted. In the following experiments, the percentage of the total cells that have incorporated BrdU (% cell proliferation) is presented. […] Percent inhibition then is calculated from the % cell proliferation values as follows: % inhibition=100-100((Ribozyme-0% serum)/(Control-0% serum)).
These include, but are not limited to, ammonium chloride, carbonyl cyanide p-trifluoromethoxy phenyl hydrazone (FCCP), chloroquine, monensin, colchicine, and viral particles (Cotten, M. et al., 1990, Proc. Natl. Acad. Sci. USA, 87, 4033-4037; Cotten, M. et al., 1993, J. Virol., 67, 3777-3785; Cotten, M. et al., 1992, Proc. Natl. Acad. Sci USA, 89, 6094-6098; Cristiano, R. J. et al., 1993, Proc. Natl. Acad. Sci. U S A, 90, 2122-6; Cudel, D. T. et al., 1991, Proc. Nat. Acad. Sci., USA, 88, 8850-8854; Ege, T. et al., 1984, Exp. Cell Res., 155, 9-16; Harris, C. E. et al., 1993, Am. J. Respir. Cell Mol. Biol., 9, 441-7; Seth, P. et al., 1994, J. Virol., 68, 933-40; Zenke, M. et al., 1990, Proc. Natl. Acad. Sci. USA, 87, 3655-3659). […] To determine whether such agents may augment the functional delivery of RNA and ribozymes to smooth muscle cells, the effects of chloroquine on ribozyme inhibition of smooth muscle cell proliferation were assessed. […]

With CCN(CC)CCCC(C)Nc1ccnc2cc(Cl)ccc12 (centres unmarked) [chloroquine] as the compound, how does the “% cell proliferation” value (10 μM chloroquine added upon stimulation, stimulation with 10% serum) read?
The value was 80.5±1.5%.

What about the “augmentation of ribozyme inhibition of smooth muscle cell proliferation” value (10 μM chloroquine) of the same compound?
The value was “two- to three-fold”.

What about the “augmentation of ribozyme inhibition of smooth muscle cell proliferation” value (10 μM chloroquine, listed as Chloroquine) of the same compound?
Its value is 2- to 3 fold.

What about the “effect of chloroquine on untreated cells (proliferation)” value (10 μM chloroquine, cells without ribozyme) of the same compound?
The value was “no effect”.

What about the “% cell proliferation” value (10 μM chloroquine, unstimulated cells) of the same compound?
The value was 7±0.5%.
